Paper PMC12858405, “Ideal efficacy photoswitching for chromocontrol of TRPC4/5 channel functions in live tissues” (Nature Chemical Biology, 2026)

Molecular target: T1, TRPC4 (Mus musculus, UniProt Q9QUQ5)
T1 construct: expressed in transfected cells; host or cells: HEK293
T1 sequence (Q9QUQ5 1-890 isoform Q9QUQ5-2): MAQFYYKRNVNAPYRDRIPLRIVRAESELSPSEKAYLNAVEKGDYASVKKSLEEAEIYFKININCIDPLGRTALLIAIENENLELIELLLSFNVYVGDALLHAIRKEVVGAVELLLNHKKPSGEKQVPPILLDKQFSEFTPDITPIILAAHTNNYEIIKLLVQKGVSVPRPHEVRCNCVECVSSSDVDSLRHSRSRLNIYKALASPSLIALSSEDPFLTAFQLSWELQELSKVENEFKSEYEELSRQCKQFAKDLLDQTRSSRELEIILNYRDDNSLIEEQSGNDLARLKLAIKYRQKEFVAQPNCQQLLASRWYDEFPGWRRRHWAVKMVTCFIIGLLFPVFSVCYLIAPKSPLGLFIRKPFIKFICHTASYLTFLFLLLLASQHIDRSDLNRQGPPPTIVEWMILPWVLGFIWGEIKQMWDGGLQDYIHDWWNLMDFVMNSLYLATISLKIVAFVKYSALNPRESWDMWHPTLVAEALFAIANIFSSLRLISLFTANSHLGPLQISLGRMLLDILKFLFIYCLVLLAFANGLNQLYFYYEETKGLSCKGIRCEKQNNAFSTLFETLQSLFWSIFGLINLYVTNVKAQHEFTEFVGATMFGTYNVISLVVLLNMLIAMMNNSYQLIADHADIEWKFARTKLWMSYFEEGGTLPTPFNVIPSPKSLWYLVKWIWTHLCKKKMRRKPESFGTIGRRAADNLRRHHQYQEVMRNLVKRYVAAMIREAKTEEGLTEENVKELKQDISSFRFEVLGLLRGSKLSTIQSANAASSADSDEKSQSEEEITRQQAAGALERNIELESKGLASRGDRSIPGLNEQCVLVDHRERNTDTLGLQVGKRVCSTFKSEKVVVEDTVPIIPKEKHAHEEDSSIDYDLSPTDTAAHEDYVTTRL
Experiment: Whole-cell patch clamp with monochromated photoswitching, TRPC4-expressing HEK293 cells
Format: cell-based
Conditions: 10 nM, Vh −80 mV, action spectrum 330-505 nm
Excerpt: We next performed electrophysiological patch clamp experiments to characterize the action and specificity of channel modulation in more detail. […] Secondly, electrophysiology readouts linearly and temporally resolve ionic currents through the activated channels, unlike the delayed and attenuated fluorometric Ca^2+ influx analyses in FLIPR. Thirdly, the electrophysiology setup can use narrow-bandwidth monochromated light at any wavelength.
The repeatability of on–off photocycling allowed us to extract action spectra for both (1) photoactivation (Fig. 2d,e) and (2) photodeactivation (Fig. 2f,g) in situ in live cells.
The advantage of the ephys setup is that freely chosen monochromated wavelengths can be used for photoswitching, while in parallel there is no optical imaging light to counteract these optimal wavelengths: and this allows for optimising the photoswitchability.
repeatability of on/off photocycling allowed us to extract action spectra for both (1) photoactivation (Fig. 2d,e) and (2) photodeactivation (Fig. 2f,g) in situ in live cells.
physiological whole-cell recordings of TRPC4 currents in voltage clamp mode (a,b,d-g: Vh = -80 mV; c: Vh scan)
return to baseline currents throughout the applied voltage range. d-g, Spectral scans to extract the wavelength […]

- Wavelength range for effective off-photoswitching (channel currents): 400-480 nm
SMILES: Cn1c(=O)n(CCCO)c(=O)c2c1nc(Oc1ccc(N=Nc3ccccc3)c(OC(F)(F)F)c1)n2Cc1ccc(Cl)cc1 [AzPico]
